Values after ≈ are worked out from the molar mass of the structure shown.
Assays:
Format in all cases: functional
[1] = tested on: Staphylococcus aureus; test: Antimicrobial activity against methicillin-resistant Staphylococcus aureus isolate 309-8
[2] = tested on: Staphylococcus aureus; test: Antimicrobial activity against methicillin-sensitive Staphylococcus aureus isolate 309-1
[3] = tested on: Staphylococcus aureus; test: Antimicrobial activity against Staphylococcus aureus ATCC 6538
[4] = tested on: Staphylococcus aureus; test: Antimicrobial activity against methicillin-resistant Staphylococcus aureus isolate 309-7
[5] = tested on: Staphylococcus aureus; test: Antimicrobial activity against methicillin-resistant Staphylococcus aureus isolate 6-42
[6] = tested on: Staphylococcus aureus; test: Antimicrobial activity against methicillin-resistant Staphylococcus aureus isolate 309-4
[7] = tested on: Staphylococcus aureus; test: Antimicrobial activity against methicillin-resistant Staphylococcus aureus isolate Chaoyang
[8] = tested on: Pseudomonas aeruginosa; test: Antimicrobial activity against Pseudomonas aeruginosa PAO1
[9] = tested on: Bacillus subtilis; test: Antimicrobial activity against Bacillus subtilis ATCC 6633
[10] = tested on: Staphylococcus aureus; test: Antimicrobial activity against methicillin-resistant Staphylococcus aureus

SMILES | MBC [1] [µg/mL] | MIC [1] [µg/mL] | MBC [2] [µg/mL] | MIC [2] [µg/mL] | MBC [3] [µg/mL] | MIC [3] [µg/mL] | MBC [4] [µg/mL] | MIC [4] [µg/mL] | MBC [5] [µg/mL] | MIC [5] [µg/mL] | MBC [6] [µg/mL] | MIC [6] [µg/mL] | MBC [7] [µg/mL] | MIC [7] [µg/mL] | MIC [8] [µg/mL] | MIC [9] [µg/mL] | MIC [10] [µg/mL]
O=[N+]([O-])c1ccc(S)cc1 | > 100 | 1.56 (≈ 10.1 µM) | > 100 | 1.56 (≈ 10.1 µM) | > 100 | 3.13 (≈ 20.2 µM) | > 100 | 1.56 (≈ 10.1 µM) | > 100 | 1.56 (≈ 10.1 µM) | > 100 | 1.56 (≈ 10.1 µM) | > 100 | 1.56 (≈ 10.1 µM) | – | – | –
COC(=O)CC[C@H](N)C(=O)OC | > 100 | > 100 | > 100 | > 100 | > 100 | > 100 | > 100 | > 100 | > 100 | > 100 | > 100 | > 100 | > 100 | > 100 | – | – | –
CCOC(=O)c1ccccc1SN1C(=O)C(=O)c2cc(Br)cc(Br)c21 | – | – | – | – | – | – | – | – | – | – | – | – | – | – | > 100 | > 100 | 25 (≈ 51.5 µM)
COC(=O)[C@H](Cc1c[nH]c2ccccc12)NSc1ccccc1[N+](=O)[O-] | > 100 | 25 (≈ 67.3 µM) | > 100 | 25 (≈ 67.3 µM) | > 100 | 6.25 (≈ 16.8 µM) | > 100 | 12.5 (≈ 33.7 µM) | > 100 | 3.13 (≈ 8.43 µM) | > 100 | 25 (≈ 67.3 µM) | > 100 | 3.13 (≈ 8.43 µM) | > 100 | 12.5 (≈ 33.7 µM) | 3.13 (≈ 8.43 µM)
CCOC(=O)[C@H](Cc1c[nH]c2ccccc12)NSc1ccccc1[N+](=O)[O-] | > 100 | 6.25 (≈ 16.2 µM) | > 100 | 12.5 (≈ 32.4 µM) | > 100 | 6.25 (≈ 16.2 µM) | > 100 | 6.25 (≈ 16.2 µM) | > 100 | 1.56 (≈ 4.05 µM) | > 100 | 12.5 (≈ 32.4 µM) | > 100 | 1.56 (≈ 4.05 µM) | > 100 | 6.25 (≈ 16.2 µM) | 1.56 (≈ 4.05 µM)
CC(C)OC(=O)[C@H](Cc1c[nH]c2ccccc12)NSc1ccccc1[N+](=O)[O-] | > 100 | 6.25 (≈ 15.6 µM) | > 100 | 25 (≈ 62.6 µM) | > 100 | 6.25 (≈ 15.6 µM) | > 100 | 6.25 (≈ 15.6 µM) | > 100 | 3.13 (≈ 7.84 µM) | > 100 | 25 (≈ 62.6 µM) | > 100 | 3.13 (≈ 7.84 µM) | > 100 | 12.5 (≈ 31.3 µM) | 3.13 (≈ 7.84 µM)
COC(=O)[C@H](Cc1c[nH]c2ccccc12)NSc1ccccc1 | – | – | – | – | – | – | – | – | – | – | – | – | – | – | > 100 | 25 (≈ 76.6 µM) | 50 (≈ 153 µM)
CCOC(=O)[C@H](Cc1c[nH]c2ccccc12)NSc1ccccc1 | – | – | – | – | – | – | – | – | – | – | – | – | – | – | > 100 | 25 (≈ 73.4 µM) | 25 (≈ 73.4 µM)
CCOC(=O)[C@H](Cc1c[nH]c2ccccc12)NSc1ccc(C)cc1 | – | – | – | – | – | – | – | – | – | – | – | – | – | – | > 100 | 25 (≈ 70.5 µM) | > 100
Cc1ccc(SN[C@@H](Cc2c[nH]c3ccccc23)C(=O)OC(C)C)cc1 | – | – | – | – | – | – | – | – | – | – | – | – | – | – | > 100 | 25 (≈ 67.8 µM) | > 100
COC(=O)[C@H](Cc1c[nH]c2ccccc12)NSc1ccc([N+](=O)[O-])cc1 | – | – | – | – | – | – | – | – | – | – | – | – | – | – | > 100 | 25 (≈ 67.3 µM) | > 100
COC(=O)[C@H](Cc1c[nH]c2ccccc12)NSc1ccc([N+](=O)[O-])cc1[N+](=O)[O-] | – | – | – | – | – | – | – | – | – | – | – | – | – | – | > 100 | 25 (≈ 60 µM) | > 100
CCOC(=O)[C@H](Cc1c[nH]c2ccccc12)NSc1ccc([N+](=O)[O-])cc1[N+](=O)[O-] | – | – | – | – | – | – | – | – | – | – | – | – | – | – | > 100 | 25 (≈ 58.1 µM) | > 100
COC(=O)CC[C@H](NSc1ccccc1[N+](=O)[O-])C(=O)OC | – | – | – | – | – | – | – | – | – | – | – | – | – | – | > 100 | 25 (≈ 76.1 µM) | 12.5 (≈ 38.1 µM)
CCOC(=O)CC[C@H](NSc1ccccc1[N+](=O)[O-])C(=O)OCC | – | – | – | – | – | – | – | – | – | – | – | – | – | – | > 100 | 25 (≈ 70.1 µM) | 25 (≈ 70.1 µM)
COC(=O)CC[C@H](NSc1ccc([N+](=O)[O-])cc1)C(=O)OC | > 100 | 3.13 (≈ 9.53 µM) | > 100 | 6.25 (≈ 19 µM) | > 100 | 6.25 (≈ 19 µM) | > 100 | 3.13 (≈ 9.53 µM) | > 100 | 1.56 (≈ 4.75 µM) | > 100 | 6.25 (≈ 19 µM) | > 100 | 1.56 (≈ 4.75 µM) | > 100 | 3.13 (≈ 9.53 µM) | 1.56 (≈ 4.75 µM)
COC(=O)CC[C@H](NSc1ccc([N+](=O)[O-])cc1[N+](=O)[O-])C(=O)OC | – | – | – | – | – | – | – | – | – | – | – | – | – | – | > 100 | 50 (≈ 134 µM) | > 100

SMILES | MBC [1] [µg/mL] | MIC [1] [µg/mL] | MBC [2] [µg/mL] | MIC [2] [µg/mL] | MBC [3] [µg/mL] | MIC [3] [µg/mL] | MBC [4] [µg/mL] | MIC [4] [µg/mL] | MBC [5] [µg/mL] | MIC [5] [µg/mL] | MBC [6] [µg/mL] | MIC [6] [µg/mL] | MBC [7] [µg/mL] | MIC [7] [µg/mL] | MIC [8] [µg/mL] | MIC [9] [µg/mL] | MIC [10] [µg/mL]
CCOC(=O)CC[C@H](NSc1ccc([N+](=O)[O-])cc1[N+](=O)[O-])C(=O)OCC | – | – | – | – | – | – | – | – | – | – | – | – | – | – | > 100 | 50 (≈ 125 µM) | > 100
CC(C)OC(=O)CC[C@H](NSc1ccc([N+](=O)[O-])cc1[N+](=O)[O-])C(=O)OC(C)C | – | – | – | – | – | – | – | – | – | – | – | – | – | – | > 100 | 25 (≈ 58.2 µM) | > 100
O=C1C(=O)N(Sc2ccccc2[N+](=O)[O-])c2ccccc21 | – | – | – | – | – | – | – | – | – | – | – | – | – | – | > 100 | > 100 | 25 (≈ 83.3 µM)
O=C1C(=O)N(Sc2ccccc2)c2ccccc21 | – | – | – | – | – | – | – | – | – | – | – | – | – | – | > 100 | 25 (≈ 97.9 µM) | 50 (≈ 196 µM)
Cc1ccc(SN2C(=O)C(=O)c3ccccc32)cc1 | – | – | – | – | – | – | – | – | – | – | – | – | – | – | > 100 | > 100 | > 100
COC(=O)c1ccccc1SN1C(=O)C(=O)c2ccccc21 | – | – | – | – | – | – | – | – | – | – | – | – | – | – | > 100 | > 100 | 50 (≈ 160 µM)
CCOC(=O)c1ccccc1SN1C(=O)C(=O)c2ccccc21 | – | – | – | – | – | – | – | – | – | – | – | – | – | – | > 100 | > 100 | 12.5 (≈ 38.2 µM)
O=C1C(=O)N(Sc2ccc([N+](=O)[O-])cc2[N+](=O)[O-])c2ccccc21 | – | – | – | – | – | – | – | – | – | – | – | – | – | – | > 100 | > 100 | > 100
O=C1C(=O)N(Sc2ccccc2[N+](=O)[O-])c2c(Cl)cccc21 | > 100 | 12.5 (≈ 37.3 µM) | > 100 | 12.5 (≈ 37.3 µM) | > 100 | 12.5 (≈ 37.3 µM) | > 100 | 6.25 (≈ 18.7 µM) | > 100 | 6.25 (≈ 18.7 µM) | > 100 | 12.5 (≈ 37.3 µM) | > 100 | 6.25 (≈ 18.7 µM) | > 100 | > 100 | 6.25 (≈ 18.7 µM)
COC(=O)c1ccccc1SN1C(=O)C(=O)c2cccc(Cl)c21 | – | – | – | – | – | – | – | – | – | – | – | – | – | – | > 100 | > 100 | 12.5 (≈ 35.9 µM)
CCOC(=O)c1ccccc1SN1C(=O)C(=O)c2cccc(Cl)c21 | – | – | – | – | – | – | – | – | – | – | – | – | – | – | > 100 | > 100 | > 100
O=C1C(=O)N(Sc2ccccc2[N+](=O)[O-])c2c(Br)cccc21 | – | – | – | – | – | – | – | – | – | – | – | – | – | – | > 100 | > 100 | 12.5 (≈ 33 µM)
CCOC(=O)c1ccccc1SN1C(=O)C(=O)c2cccc(Br)c21 | – | – | – | – | – | – | – | – | – | – | – | – | – | – | > 100 | > 100 | > 100
O=C1C(=O)N(Sc2ccccc2[N+](=O)[O-])c2c(Br)cc(Br)cc21 | – | – | – | – | – | – | – | – | – | – | – | – | – | – | > 100 | > 100 | 25 (≈ 54.6 µM)
CCOC(=O)[C@@H](N)Cc1c[nH]c2ccccc12 | > 100 | > 100 | > 100 | > 100 | > 100 | > 100 | > 100 | > 100 | > 100 | > 100 | > 100 | > 100 | > 100 | > 100 | – | – | –
CN[C@H](CC(C)C)C(=O)N[C@H]1C(=O)N[C@@H](CC(N)=O)C(=O)N[C@H]2C(=O)N[C@H]3C(=O)N[C@H](C(=O)N[C@H](C(=O)O)c4cc(O)cc(O)c4-c4cc3ccc4O)[C@H](O)c3ccc(c(Cl)c3)Oc3cc2cc(c3O[C@@H]2O[C@H](CO)[C@@H](O)[C@H](O)[C@H]2O[C@H]2C[C@](C)(N)[C@H](O)[C@H](C)O2)Oc2ccc(cc2Cl)[C@H]1O [VANCOMYCIN] | 1 (≈ 0.69 µM) | – | 1 (≈ 0.69 µM) | – | 2 (≈ 1.38 µM) | – | 1 (≈ 0.69 µM) | – | 1 (≈ 0.69 µM) | – | 1 (≈ 0.69 µM) | – | 1 (≈ 0.69 µM) | – | > 100 | 0.5 (≈ 0.345 µM) | –

Reference: ChEMBL document CHEMBL2311326, “Synthesis and evaluation of novel sulfenamides as novel anti Methicillin-resistant Staphylococcus aureus agents” (2013)
